According to PMC10142505, “Synthesis, Evaluation of Enzyme Inhibition and Redox Properties of Potential Dual COX-2 and 5-LOX Inhibitors” (Pharmaceuticals, 2023):
Marks after values point to notes of the source that are not given here.

Columns and labels:
human serum pool = assay: Redox activity (oxy score from TOS, PAB, TAS, SHG) in vitro in human serum pool; conditions: 37 °C, median (interquartile range); for Oxy score (OS), 2 h incubation, TBH added / Oxy score (OS), 24 h incubation, TBH added: with TBH added; for Oxy score (OS), 2 h incubation / Oxy score (OS), 24 h incubation: without TBH; for Oxy score (OS), 2 h incubation: average of five concentrations
Method: The remains of the serum samples were taken from healthy subjects after biochemical analysis; these subjects participated in regular medical examinations at the Military Medical Academy in Belgrade and consented to the formation of a serum pool. Neither the patients’ data nor their identities were used. Serum pool samples were prepared and aliquoted (450 µL portions) according to the routine procedure for in-house controle samples and preserved at the -80 °C until analysis. Five serial dilutions of the tested compounds (concentrations: 1000 µM, 500 µM, 250 µM, 125 µM and 62.5 µM) were added alone (50 µL) or in combination (25 µL) with oxidant TBH (25 µM) into 450 µL of serum. The compounds were dissolved in dimethyl sulfoxide (DMSO) for stock solution (1000 µM), while a PBS buffer (phosphate buffered saline) pH = 7.4 was used for serial dilutions (500 µM, 250 µM, 125 µM and 62.5 µM). Deionized water was used as a blank. DMSO and buffer pH = 7.4 were used as a control, while trolox solution (2 mmol/L) was used as a standard. All samples were incubated in duplicate for 2 h and 24 h at 37 °C.
Oxidative stress parameters (total antioxidative status (TAS), total oxidative status (TOS), total concentration of sulfhydryl group (SHG) and prooxidative–antioxidative balance (PAB)) were determined in order to calculate prooxidative score, antioxidative score and oxy score (OS). These parameters were determined in serum.
Total antioxidative status (TAS) was measured using Erel’s method, which was further optimized by Kotur-Stevuljevic et al. in 2015 [34]. ABTS (2,2-azino-bis(3-ethyl-benzthiazoline-6-sulfonic acid) is oxidized to a green-colored ABTS^+ cation by hydrogen peroxide in the acetate buffer (pH = 3.6). This stable cation is chromogen, and the presence of antioxidants in the samples causes its discoloration proportional to their concentrations. The absorbance was measured using a SPECTROstar Nano Microplate Reader (BMG Labtech, Ortenberg, Germany). The reaction was calibrated with Trolox and the TAS values are expressed as mmol trolox equivalent/L.
Total oxidative status (TOS) was measured using Erel’s method. Here, a ferrous ion-o-dianisidine complex is oxidized to ferric ion by the oxidants present in the sample. The ferric ion forms a colored complex with xylenol orange in an acidic environment and in the presence of glycerol. The intensity of the color of the formed complex is proportional to the total contents of oxidants in the sample. The absorbance was measured at 560 nm using a SPECTROstar Nano Microplate Reader (BMG Labtech, Ortenberg, Germany). The reaction was calibrated with hydrogen peroxide and the TOS values are expressed as µmol H2O2 equivalent/L.
Prooxidant–antioxidant balance (PAB) was measured according to procedures in the literature. Here, hydrogen peroxide is determined in the presence of antioxidants in the sample. Both of them (hydrogen peroxide and antioxidants (including uric acid)) react with chromogen TMB (3,3′,5,5′-tetramethylbenzidine) simultaneously. The hydrogen peroxide and chromogen reaction is enzymatically catalyzed with peroxidase, while the antioxidants–chromogen reaction is non-enzymatic. The intense blue color, produced as a result of the reaction between hydrogen peroxide and TMB, is decolorized by the reaction of the antioxidant with the TMB. The resulting color (result of two competitive reactions) is proportional to the ratio of antioxidants to prooxidants. The absorbance was measured at 450 nm. Different ratios of hydrogen peroxide and uric acid solutions were used to make a standard curve. The PAB results are expressed in hydrogen peroxide concentrations.
Total Sulfydryl Groups Content (SHG) was measured using a modified version of Ellman’s method. This method is based on the reaction between DTNB ([…]) and aliphatic thiol compounds in an alkaline environment (pH = 9.0). […]

5-LOX enzyme = target: T1, 5-LOX enzyme (Homo sapiens, UniProt P09917); assay: Fluorometric 5-LOX inhibitor screening kit; assay type: biochemical; conditions: IC50 ± standard error
T1 construct: purchased MyBioSource MBS846911
T1 sequence (P09917 1-674): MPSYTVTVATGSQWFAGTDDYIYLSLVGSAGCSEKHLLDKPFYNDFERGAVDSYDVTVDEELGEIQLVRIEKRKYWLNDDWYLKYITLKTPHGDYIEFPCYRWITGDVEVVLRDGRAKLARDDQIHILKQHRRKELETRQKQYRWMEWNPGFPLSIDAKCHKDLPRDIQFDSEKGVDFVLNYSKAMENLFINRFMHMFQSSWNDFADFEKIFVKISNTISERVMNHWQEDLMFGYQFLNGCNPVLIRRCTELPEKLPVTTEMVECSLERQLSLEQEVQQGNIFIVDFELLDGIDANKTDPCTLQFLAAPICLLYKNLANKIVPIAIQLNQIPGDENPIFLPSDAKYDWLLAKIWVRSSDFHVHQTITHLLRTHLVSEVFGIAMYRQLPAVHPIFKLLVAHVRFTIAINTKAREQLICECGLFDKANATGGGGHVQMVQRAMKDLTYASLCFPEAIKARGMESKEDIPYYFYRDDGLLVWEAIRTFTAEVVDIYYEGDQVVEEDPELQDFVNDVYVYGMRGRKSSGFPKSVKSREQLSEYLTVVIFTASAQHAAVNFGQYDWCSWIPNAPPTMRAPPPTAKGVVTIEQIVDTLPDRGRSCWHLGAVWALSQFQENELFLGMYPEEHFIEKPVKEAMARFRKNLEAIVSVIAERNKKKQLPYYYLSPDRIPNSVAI
Method: The 5-LOX inhibitory activates of synthesized compounds were tested using a fluorometric 5-LOX inhibitor screening kit (MyBioSource, San Diego, CA, USA; Catalog Number: MBS846911). This assay is based on the fluorometric detection of the intermediate generated by the 5-LOX enzyme. The experiment was conducted according to the manufacturer’s instructions. […] The tested compounds were dissolved in DMSO. Test solutions were added to corresponding wells at an amount of 2 µL out of the final 100 µL reaction volume per well. […] The volume was adjusted to 40 µL in each well by adding 38 µL of LOX Assay Buffer. The Reaction Mix (containing LOX Assay Buffer, LOX Probe and 5-LOX Enzyme) was prepared according to the instructions and 40 µL of the Reaction Mix was added into each well. The plate was incubated at room temperature for 10 min before adding the substrate diluted in the LOX Assay Buffer (1:2500 dilution factor). The final substrate solution was added at an amount of 20 µL into each well using a multi-channel pipette to initiate all the reactions at the same time. […] The EC, SC, IC and tested compounds at all concentrations were analyzed in triplicates. Two points (T1 and T2) in the linear range of the plot were chosen and corresponding fluorescence values (RFU1 and RFU2) were obtained. The slope for all samples was calculated by dividing ΔRFU (RFU2-RFU1) by the time Δt (T2−T1). The percentage of inhibition was calculated according to the equation mentioned in Section 3.3.1.
Fluorescence measurements were performed on a BioTek Synergy LX multi-mode reader (Winooski, VT, USA).

Row | Compound | IC50 (5-LOX enzyme) [µM] | Oxy score (OS), 2 h incubation, TBH added (human serum pool) | Oxy score (OS), 2 h incubation (human serum pool) | Oxy score (OS), 24 h incubation, TBH added (human serum pool) | Oxy score (OS), 24 h incubation (human serum pool)
1 | COc1ccc2c(c1)c(CNC(=O)NO)c(C)n2C(=O)c1ccc(Cl)cc1 [Compound 1, N’-hydroxy-N-[(1-(4-chlorobenzoyl)-5-methoxy-2-methyl-3-indolyl)methyl]urea] | 5.71 ± 0.15 | 6.44 (5.51–7.02) | −0.43 (−1.27–3.13) | 5.46 (4.96–6.20) | 0.71 (0.51–0.80)
2 | CCOc1ccccc1NC(=O)Nc1ccc([N+](=O)[O-])cc1 [Compound 10, 1-(2-ethoxy-phenyl)-3-(4-nitro-phenyl)-urea] | 13 ± 2.67 | 6.34 (5.07–22.02) |  | 0.97 (−0.04–4.08) | −0.97 (−1.53–3.85)
3 | COc1ccc2cc(C(C)N(O)C(C)=O)ccc2c1 (stereo not drawn) [Compound 12, N-hydroxy-N-[1-(6-methoxy-naphthalen-2-yl)-ethyl]-acetamide] | 1.29 ± 0.1 | 4.79 (4.25–5.43) | 0.24 (−0.06–0.58) | 3.97 (3.44–6.33) | 2.49 (2.03–2.66) **
4 | CN(C)C(=O)Nc1ccccc1C(=O)O [Compound 9, 2-(3,3-dimethyl-ureido)-benzoic acid] | > 100 | 5.97 (4.06–8.25) | 0.09 (−0.79–1.80) | −0.19 (−0.68–1.56) | −0.18 (−1.55–2.91)
5 | CC(C)(C)c1cc(C=C2SC(=S)N(N)C2=O)cc(C(C)(C)C)c1O [Compound 13, 3-amino-5-(3,5-di-tert-butyl-4-hydroxy-benzylidene)-2-thioxo-thiazolidin-4-one] | 13.6 ± 3.54 | 5.89 (5.63–6.14) | 0.75 (0.56–0.94) |  | 0.64 (0.19–1.01)
6 | C#CCNC(=O)c1cc(C(C)(C)C)c(O)c(C(C)(C)C)c1 [Compound 7, 3,5-di-tert-butyl-4-hydroxy-N-prop-2-ynyl-benzamide] | 12.6 ± 3.36 | 6.62 (6.42–6.98) | 3.12 (2.21–3.47) | 10.54 (4.45–27.42) | 2.55 (2.18–2.92)
7 | COC(=O)C(Cc1c[nH]cn1)NC(=O)c1cc(C(C)(C)C)c(O)c(C(C)(C)C)c1 (stereo not drawn) [Compound 4, 2-(3,5-di-tert-butyl-4-hydroxy-benzoylamino)-3-(1H-imidazol-4-yl)-propionic acid methyl ester] | 8.1 ± 2.12 | 3.68 (3.36–8.40) | 0.24 (−0.24–0.89) | 7.86 (7.20–10.68) | 3.00 (1.99–3.93) **

More lines, in order of falling IC50 (5-LOX enzyme), values ahead:

Row | IC50 (5-LOX enzyme) [µM] | Compound | Oxy score (OS), 2 h incubation, TBH added (human serum pool) | Oxy score (OS), 2 h incubation (human serum pool) | Oxy score (OS), 24 h incubation, TBH added (human serum pool) | Oxy score (OS), 24 h incubation (human serum pool)
8 | 53.8 ± 11.9 | C=CCNC(=O)c1cc(C(C)(C)C)c(O)c(C(C)(C)C)c1 [Compound 6, N-allyl-3,5-di-tert-butyl-4-hydroxy-benzamide] | 3.77 (3.37–4.20) | 0.52 (0.08–1.52) | 6.07 (4.34–7.02) | 3.09 (2.50–3.67)
9 | 14.5 ± 3.62 | CCOc1ccccc1NC(=O)N(C)C [Compound 8, 3-(2-ethoxy-phenyl)-1,1-dimethyl-urea] | 8.43 (5.76–13.81) | 0.03 (−0.96–1.46) | −0.55 (−0.67–1.48) ^## | −0.52 (−1.24–3.03)
10 | 9.3 ± 1.87 | COC(=O)CNC(=O)c1cc(C(C)(C)C)c(O)c(C(C)(C)C)c1 [Compound 5, (3,5-di-tert-butyl-4-hydroxy-benzoylamino)-acetic acid methyl ester] | 2.83 (2.55–3.39) | 0.29 (−0.30–1.23) | 5.64 (5.07–6.47) | 2.14 (1.37–2.62) **
11 | 1.73 ± 0.64 | O=C(NO)NCc1ccccc1Nc1c(Cl)cccc1Cl [Compound 3, N’-hydroxy-N-[(2-(2,6-dichloroanilino)phenyl)methyl]urea] | 5.81 (4.64–7.25) | 1.58 (−0.38–3.45) | 1.93 (0.65–5.02) ^# | 1.31 (−0.31–1.75)
12 | 1.62 ± 0.67 | CC(NC(=O)NO)c1ccc(-c2ccccc2)c(F)c1 (stereo not drawn) [Compound 2] | 5.20 (3.70–5.42) | 3.28 (−0.68–16.66) | 6.79 (4.37–7.90) | 0.33 (−0.07–0.85)
13 | 1.04 ± 0.22 | CC(=O)N(O)C(C)c1ccc(CC(C)C)cc1 (stereo not drawn) [Compound 11] | 5.15 (4.76–6.74) | −0.22 (−0.65–0.82) | 3.18 (2.92–3.60) ^## | 1.83 (1.49–2.18) *
